The structures appear in SMILES notation.

The first test relates to IL-1β production in PMA-differentiated THP-1 cells. Nature of the test: IL-1β production in PMA-differentiated THP-1 cells stimulated with gramicidin (hTHP-1 assay). Format: cell-based, human. As to conditions: Average IC50, hTHP-1 assay containing 2% fetal bovine serum; Table 10, class symbols. Here is the method:
Procedure 1: IL-1β Production in PMA-Differentiated THP-1 Cells Stimulated with Gramicidin
THP-1 cells were purchased from the American Type Culture Collection and sub-cultured according to instructions from the supplier. Cells were cultured in complete RPMI 1640 (containing 10% heat inactivated FBS, penicillin (100 units/ml) and streptomycin (100 μg/ml)), and maintained in log phase prior to experimental setup. Prior to the experiment, compounds were dissolved in dimethyl sulfoxide (DMSO) to generate a 30 mM stock. The compound stock was first pre-diluted in DMSO to 3, 0.34, 0.042 and 0.0083 mM intermediate concentrations and subsequently spotted using Echo550 liquid handler into an empty 384-well assay plate to achieve desired final concentration (e.g. 100, 33, 11, 3.7, 1.2, 0.41, 0.14, 0.046, 0.015, 0.0051, 0.0017 μM). DMSO was backfilled in the plate to achieve a final DMSO assay concentration of 0.37%. The plate was then sealed and stored at room temperature until required.
THP-1 cells were treated with PMA (Phorbol 12-myristate 13-acetate) (20 ng/ml) for 16-18 hours. On the day of the experiment the media was removed and adherent cells were detached with trypsin for 5 minutes. Cells were then harvested, washed with complete RPMI 1640, spun down, and resuspended in RPMI 1640 (containing 2% heat inactivated FBS, penicillin (100 units/ml) and streptomycin (100 μg/ml). The cells were plated in the 384-well assay plate containing the spotted compounds at a density of 50,000 cells/well (final assay volume 50 μl). Cells were incubated with compounds for 1 hour and then stimulated with gramicidin (5 μM) (Enzo) for 2 hours. Plates were then centrifuged at 340 g for 5 min. Cell free supernatant ([…]) was collected using a 96-channel PlateMaster (Gilson) and the production of IL-1β was evaluated by HTRF (cisbio). The plates were incubated for 18 h at 4° C. and read using the preset HTRF program (donor emission at 620 nm, acceptor emission at 668 nm) of the SpectraMax i3x spectrophotometer (Molecular Devices, software SoftMax 6). A vehicle only control and a dose titration of CRID3 (100-0.0017 μM) were run concurrently with each experiment.
Procedure 2: […] Production in PMA-Differentiated THP-1 Cells Stimulated with Gramicidin
THP-1 cells were purchased from the American Type Culture Collection and sub-cultured according to instructions from the supplier. Prior to experiments, cells were cultured in complete RPMI 1640 (containing 10% heat inactivated FBS, penicillin (100 units/ml) and streptomycin (100 μg/ml)), and maintained in log phase prior to experimental setup. Prior to the experiment THP-1 were treated with PMA (Phorbol 12-myristate 13-acetate) (20 ng/ml) for 16-18 hours. Compounds were dissolved in dimethyl sulfoxide (DMSO) to generate a 30 mM stock. On the day of the experiment the media was removed and adherent cells were detached with trypsin for 5 minutes. Cells were then harvested, washed with complete RPMI 1640, spun down, resuspended in RPMI 1640 (containing 2% heat inactivated FBS, penicillin (100 units/ml) and streptomycin (100 μg/ml). The cells were plated in a 384-well plate at a density of 50,000 cells/well (final assay volume 50 μl). Compounds were first dissolved in assay medium to obtain a 5× top concentration of 500 μM. 10 step dilutions (1:3) were then undertaken in assay medium containing 1.67% DMSO. 5× compound solutions were added to the culture medium to achieve desired final concentration (e.g. 100, 33, 11, 3.7, 1.2, 0.41, 0.14, 0.046, 0.015, 0.0051, 0.0017 μM). Final DMSO concentration was at 0.37%. Cells were incubated with compounds for 1 hour and then stimulated with gramicidin (5 μM) (Enzo) for 2 hours. Plates were then centrifuged at 340 g for 5 min. Cell free supernatant (40 μL) was collected using a 96-channel PlateMaster (Gilson) and the production of IL-1β was evaluated by HTRF (cisbio). A vehicle only control and a dose titration of CRID3 (100-0.0017 μM) were run concurrently with each experiment. […]
By IC50 is commonly meant the concentration needed to halve the response being measured. High values mean weaker potency in that assay, low ones greater potency in that assay. For the molecule `CC(CN(C)C)CS(N)(=O)=NC(=O)Nc1c2c(cc3c1CCC3)CCC2` (centres unmarked) [Compound 125, 3-(dimethylamino)-N′-((1,2,3,5,6,7-hexahydro-s-indacen-4-yl)carbamoyl)-2-methylpropane-1-sulfonimidamide], the IC50 is 1 to 5 µM. `CC(CN(C)C)CS(N)(=O)=NC(=O)Nc1c2c(cc3c1CCC3)CCC2` (centres unmarked) [Compound 123, 3-(dimethylamino)-N′-((1,2,3,5,6,7-hexahydro-s-indacen-4-yl)carbamoyl)-2-methylpropane-1-sulfonimidamide] came in with an IC50 of 5 to 30 µM.

Staying with this test, now noted: Average IC50, hTHP-1 assay containing 2% fetal bovine serum; Table 10, numeric values.
In turn, `NS(=O)(=NC(=O)Nc1c2c(cc3c1CCC3)CCC2)C1CCCC1` (centres unmarked) [Compound 152] had an IC50 of more than 30 µM. In turn, `NS(=O)(=NC(=O)Nc1c2c(cc3c1CCC3)CCC2)C1CCCCC1` (centres unmarked) [Compound 150] returned a 50% inhibitory concentration (IC50) of more than 30 µM.

Regarding `CC(C)c1cc(F)cc(C(C)C)c1CC(=O)N=S(N)(=O)C1CCCC1` (centres unmarked) [Compound 306], the IC50 is more than 30 µM. The same measure, in the same setting: the figure for `CC(C)c1cc(F)cc(C(C)C)c1CC(=O)N=S(N)(=O)CCCN(C)C` (centres unmarked) [Compound 302] is more than 30 µM; for `CN(C)CC1(S(N)(=O)=NC(=O)Nc2c3c(cc4c2CCC4)CCC3)CC1` (centres unmarked) [Compound 160] it is more than 30 µM; for `CC(C)c1cc(F)cc(C(C)C)c1CC(=O)N=S(N)(=O)CCCN(C)C` (centres unmarked) [Compound 303] it is more than 30 µM. In turn, `CN1CCC(S(N)(=O)=NC(=O)Nc2c3c(cc4c2CCC4)CCC3)CC1` (centres unmarked) [Compound 138] came in with an IC50 of more than 30 µM.

Still in this test, the particulars now being: Homo sapiens, THP-1, Average IC50, hTHP-1 assay containing 2% fetal bovine serum; Table 3B, class symbols.
Regarding `CC(C)c1cc(C#N)cc(C(C)C)c1CC(=O)NS(=O)(=O)N1CCC(C(C)(C)O)C1` (centres unmarked) [Compound 203B], the IC50 is 5 to 30 µM. On to `CC(C)c1cc(C#N)cc(C(C)C)c1CC(=O)NS(=O)(=O)N1CCCCC1` [Compound 201B, 2-(4-cyano-2,6-diisopropylphenyl)-N-(piperidin-1-ylsulfonyl)acetamide], for which the IC50 was in the range of 5 to 30 µM.

The same test, now with this note: Homo sapiens, THP-1, Average IC50, hTHP-1 assay containing 2% fetal bovine serum; Table 10, class symbols.
In turn, `CN(C)Cc1ccc(CS(N)(=O)=NC(=O)Nc2c3c(cc4c2CCC4)CCC3)cc1` (single isomer, unassigned) [Compound 106] had an IC50 of 1 to 5 µM. In turn, `CC(C)(O)c1ccc(CS(N)(=O)=NC(=O)Nc2c3c(cc4c2CCC4)CCC3)cc1` (centres unmarked) [Compound 165, N′-((1,2,3,5,6,7-hexahydro-s-indacen-4-yl)carbamoyl)-1-(4-(2-hydroxypropan-2-yl)phenyl)methane-sulfonimidamide] displayed an IC50 of 0.2 to 1 µM.

Regarding `CN(C)CCCS(N)(=O)=NC(=O)Nc1c2c(cc3c1CCC3)CCC2` (centres unmarked) [Compound 141], the IC50 is 5 to 30 µM. `CC(C)c1cc(F)cc(C(C)C)c1CC(=O)N=S(N)(=O)C1CC1` (centres unmarked) [Compound 307] had an IC50 of 0.008 to 0.04 µM. Take `NS(=O)(=NC(=O)Nc1c2c(cc3c1CCC3)CCC2)C1Cc2ccccc2C1` (single isomer, unassigned) [Compound 129]: the IC50 is 5 to 30 µM. As to `CC(CN(C)C)CS(N)(=O)=NC(=O)Nc1c2c(cc3c1CCC3)CCC2` (single isomer, unassigned) [Compound 122, 3-(dimethylamino)-N′-((1,2,3,5,6,7-hexahydro-s-indacen-4-yl)carbamoyl)-2-methylpropane-1-sulfonimidamide], the IC50 fell in the range of 1 to 5 µM. Molecule `CC(C)c1cc(F)cc(C(C)C)c1CC(=O)NS(=O)(=O)Cc1ccc(C(C)(C)O)cc1` [Compound 506] returned an IC50 of 5 to 30 µM. Still for that read-out and setting: with `CC(=O)NS(C)(=O)=NC(=O)Nc1c2c(cc3c1CCC3)CCC2` (centres unmarked) [Compound 111] the figure was 5 to 30 µM. In the case of `CC(C)c1cc(Cl)cc(C(C)C)c1NC(=O)NS(=O)(=O)CC(=O)c1ccsc1` [Compound 403], the IC50 was 5 to 30 µM. In turn, `NS(=O)(=NC(=O)Nc1c2c(cc3c1CCC3)CCC2)C1CC1` (single isomer, unassigned) [Compound 154] registered an IC50 of 5 to 30 µM. For `CS(N)(=O)=NC(=O)Nc1c2c(cc3c1CCC3)CCC2` (single isomer, unassigned) [Compound 117], the IC50 fell in the range of 5 to 30 µM.

The test is the same for the next values; noted with them: Homo sapiens, THP-1, Average IC50, hTHP-1 assay containing 2% fetal bovine serum; Table 10, numeric values.
Turning to `CN(C)CC1(S(N)(=O)=NC(=O)Nc2c3c(cc4c2CCC4)CCC3)CC1` (centres unmarked) [Compound 158], the IC50 is more than 30 µM. Consider `CC(C)c1cc(F)cc(C(C)C)c1CC(=O)NS(=O)(=O)CCCc1ccccc1` [Compound 509], for which the 50% inhibitory concentration (IC50) was more than 30 µM.

In turn, `CC(C)c1cc(F)cc(C(C)C)c1CC(=O)N=S(N)(=O)CCCN(C)C` (centres unmarked) [Compound 301] gave an IC50 of more than 30 µM. `CC(C)c1cc(F)cc(C(C)C)c1CC(=O)NS(=O)(=O)Cc1cccc(C(C)(C)O)c1` [Compound 502] gave an IC50 of more than 100 µM. On the same count and under the same terms, the figure for `NS(=O)(=NC(=O)Nc1c2c(cc3c1CCC3)CCC2)C1CCC1` (centres unmarked) [Compound 149, N′-((1,2,3,5,6,7-hexahydro-s-indacen-4-yl)carbamoyl) cyclobutane-sulfonimidamide] is more than 30 µM; for `CC(CN(C)C)CS(N)(=O)=NC(=O)Nc1c2c(cc3c1CCC3)CCC2` (centres unmarked) [Compound 126, 3-(dimethylamino)-N′-((1,2,3,5,6,7-hexahydro-s-indacen-4-yl)carbamoyl)-2-methylpropane-1-sulfonimidamide] it is more than 30 µM; for `CN(C)CCCC(=O)NS(C)(=O)=NC(=O)Nc1c2c(cc3c1CCC3)CCC2` (single isomer, unassigned) [Compound 118, 4-(dimethylamino)-N—(N-((1,2,3,5,6,7-hexahydro-s-indacen-4-yl)carbamoyl)-S-methylsulfonimidoyl)butanamide] it is more than 30 µM. `CN(C)S(C)(=O)=NC(=O)Nc1c2c(cc3c1CCC3)CCC2` (single isomer, unassigned) [Compound 101, N′-((1,2,3,5,6,7-hexahydro-s-indacen-4-yl)carbamoyl)-N,N-dimethylmethanesulfonimidamide] had an IC50 of more than 30 µM.

Take `CC(C)c1cc(F)cc(C(C)C)c1CC(=O)NS(=O)(=O)Cc1ccc(CN)cc1` [Compound 507]: the IC50 was more than 100 µM. In turn, `CS(N)(=O)=NC(=O)Nc1c2c(cc3c1CCC3)CCC2` (single isomer, unassigned) [Compound 116] came in with an IC50 of more than 30 µM.

Take `NS(=O)(=NC(=O)Nc1c2c(cc3c1CCC3)CCC2)C1Cc2ccccc2C1` (single isomer, unassigned) [Compound 130]: the IC50 is more than 30 µM. As to `CC(C)c1cc(F)cc(C(C)C)c1CC(=O)NS(=O)(=O)CCCC(=O)O` [Compound 512], the IC50 was more than 100 µM.

For `CC(C)c1cc(F)cc(C(C)C)c1CC(=O)NS(=O)(=O)Cc1cccc(C(=O)O)c1` [Compound 510], the IC50 was more than 100 µM. `NS(=O)(=NC(=O)Nc1c2c(cc3c1CCC3)CCC2)C1CCCCC1` (centres unmarked) [Compound 147] displayed an IC50 of more than 30 µM.

`CC(C)c1cc(F)cc(C(C)C)c1CC(=O)NS(=O)(=O)Cc1cccc(CN)c1` [Compound 508] registered an IC50 of more than 100 µM. On to `CC(C)c1cc(F)cc(C(C)C)c1CC(=O)NS(=O)(=O)Cc1cnn(C)c1` [Compound 528], for which the half-maximal inhibitory concentration (IC50) was more than 30 µM. Same read-out and setting: the figure for `CC(C)c1cc(F)cc(C(C)C)c1CC(=O)NS(=O)(=O)CC(=O)O` [Compound 503] is more than 100 µM; for `CN1CCC(S(N)(=O)=NC(=O)Nc2c3c(cc4c2CCC4)CCC3)CC1` (centres unmarked) [Compound 137] it is more than 30 µM. `CN1CCC(CS(N)(=O)=NC(=O)Nc2c3c(cc4c2CCC4)CCC3)C1` (single isomer, unassigned) [Compound 113] registered an IC50 of more than 30 µM.

The record behind these values is patent publication US20220227707A1, “COMPOUNDS AND COMPOSITIONS FOR TREATING CONDITIONS ASSOCIATED WITH NLRP ACTIVITY” (Novartis AG, priority 2019, published 2022).
